Toxic doses and inconclusive results are not listed.
Tested on: L1210 leukemia ip in BDF1 mice, survival T/C
Test: NCI In Vivo Anticancer Drug Screen. Data for tumor model L1210 Leukemia (intraperitoneal) in B6D2F1 (BDF1) mice
Details: endpoint: mean survival time, higher = longer survival
How it was run: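 Each compound was tested against a transplantable tumor grown in mice. The endpoint was survival, with treated animals benchmarked against vehicle controls as a simple ratio.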

[1] = dose: 100.0 mg/kg/injection, schedule: Q01DX009 (ip), vehicle: saline with Tween-80
[2] = dose: 100.0 mg/kg/injection, schedule: Q04DX003 (ip), vehicle: saline with Tween-80
[3] = dose: 200.0 mg/kg/injection, schedule: Q01DX009 (ip), vehicle: saline with Tween-80
[4] = dose: 200.0 mg/kg/injection, schedule: Q04DX003 (ip), vehicle: saline with Tween-80
[5] = dose: 400.0 mg/kg/injection, schedule: Q01DX009 (ip), vehicle: saline with Tween-80
[6] = dose: 400.0 mg/kg/injection, schedule: Q04DX003 (ip), vehicle: saline with Tween-80
[7] = dose: 100.0 mg/kg/injection, schedule: Q04DX003 (ip), vehicle: other
[8] = dose: 200.0 mg/kg/injection, schedule: Q04DX003 (ip), vehicle: other
[9] = dose: 400.0 mg/kg/injection, schedule: Q04DX003 (ip), vehicle: other
[10] = dose: 100.0 mg/kg/injection, schedule: Q01DX001 (ip), vehicle: carboxymethylcellulose (CMC)
[11] = dose: 100.0 mg/kg/injection, schedule: Q01DX001 (ip), vehicle: saline
[12] = dose: 200.0 mg/kg/injection, schedule: Q01DX001 (ip), vehicle: saline
[13] = dose: 400.0 mg/kg/injection, schedule: Q01DX001 (ip), vehicle: saline
[14] = dose: 100.0 mg/kg/injection, schedule: Q04DX002 (ip), vehicle: Klucel (hydroxypropylcellulose) (HPC)
[15] = dose: 200.0 mg/kg/injection, schedule: Q04DX002 (ip), vehicle: Klucel (hydroxypropylcellulose) (HPC)
[16] = dose: 400.0 mg/kg/injection, schedule: Q04DX002 (ip), vehicle: Klucel (hydroxypropylcellulose) (HPC)
[17] = dose: 100.0 mg/kg/injection, schedule: Q04DX003 (ip), vehicle: saline
[18] = dose: 100.0 mg/kg/injection, schedule: Q01DX009 (ip), vehicle: Klucel (hydroxypropylcellulose) (HPC)
[19] = dose: 200.0 mg/kg/injection, schedule: Q01DX009 (ip), vehicle: Klucel (hydroxypropylcellulose) (HPC)
[20] = dose: 100.0 mg/kg/injection, schedule: Q01DX009 (ip), vehicle: other
[21] = dose: 200.0 mg/kg/injection, schedule: Q01DX009 (ip), vehicle: other

O=S(=O)(CCl)Nc1ccncc1
T/C (dose: 100.0 mg/kg/injection, schedule: Q04DX013 (ip), vehicle: carboxymethylcellulose (CMC)): 101 % of control | T/C (dose: 200.0 mg/kg/injection, schedule: Q04DX013 (ip), vehicle: carboxymethylcellulose (CMC)): 100 % of control | T/C (dose: 400.0 mg/kg/injection, schedule: Q04DX013 (ip), vehicle: carboxymethylcellulose (CMC)): 100 % of control

CC(C)=CCC/C(C)=C/CNc1ncnc2nc[nH]c12
T/C (dose: 50.0 mg/kg/injection, schedule: Q01DX009 (ip), vehicle: saline with Tween-80): 103 % of control | T/C [1]: 100 % of control | T/C (dose: 100.0 mg/kg/injection, schedule: Q04DX003 (ip), vehicle: acetone): 94 % of control | T/C [2]: 94 % of control | T/C [3]: 100 % of control | T/C (dose: 200.0 mg/kg/injection, schedule: Q04DX003 (ip), vehicle: acetone): 101 % of control | T/C [4]: 95 % of control | T/C [5]: 105 % of control | T/C [6]: 90 % of control

CCC1=NS(=O)(=O)c2c(ncn2C)N1
T/C [7]: 97 % of control | T/C [8]: 97 % of control | T/C [9]: 103 % of control

CCOc1nc(S(=O)(=O)CC)ncc1C
T/C [1]: 109 % of control | T/C [2]: 105 % of control | T/C [3]: 104 % of control | T/C [4]: 100 % of control | T/C [5]: 87 % of control | T/C [6]: 103 % of control

CCOP(=S)(N/N=C\C(C)(C)C1CCCCC1)OCC
T/C [10]: 94 % of control | T/C (dose: 200.0 mg/kg/injection, schedule: Q01DX001 (ip), vehicle: carboxymethylcellulose (CMC)): 91 % of control | T/C (dose: 400.0 mg/kg/injection, schedule: Q01DX001 (ip), vehicle: carboxymethylcellulose (CMC)): 98 % of control

c1cc[n+]2c(c1)-c1cccc[n+]1CC2
T/C (dose: 6.25 mg/kg/injection, schedule: Q01DX009 (ip), vehicle: saline): 108 % of control | T/C (dose: 12.5 mg/kg/injection, schedule: Q01DX009 (ip), vehicle: saline): 104 % of control | T/C (dose: 12.5 mg/kg/injection, schedule: Q04DX003 (ip), vehicle: saline): 104 % of control | T/C (dose: 15.0 mg/kg/injection, schedule: Q01DX001 (ip), vehicle: saline): 95 % of control | T/C (dose: 25.0 mg/kg/injection, schedule: Q04DX003 (ip), vehicle: saline): 104 % of control | T/C (dose: 30.0 mg/kg/injection, schedule: Q01DX001 (ip), vehicle: saline): 102 % of control | T/C (dose: 50.0 mg/kg/injection, schedule: Q04DX003 (ip), vehicle: saline): 101 % of control | T/C (dose: 60.0 mg/kg/injection, schedule: Q01DX001 (ip), vehicle: saline): 102 % of control | T/C (dose: 75.0 mg/kg/injection, schedule: Q01DX001 (ip), vehicle: saline): 95 % of control

O=C(/C=C/c1ccccc1)C1CC1
T/C [7]: 101 % of control | T/C [8]: 98 % of control | T/C [9]: 98 % of control

Cc1nnc2[nH]c(=O)[nH]c(=O)c2n1
T/C (dose: 50.0 mg/kg/injection, schedule: Q01DX001 (ip), vehicle: saline): 98 % of control | T/C [11]: 104 % of control | T/C [12]: 101 % of control | T/C [13]: 98 % of control

COc1ccc(/C=C/C(=O)c2cc(O)cc(OC)c2)cc1
T/C [1]: 102 % of control | T/C [2]: 100 % of control | T/C [3]: 94 % of control | T/C [4]: 108 % of control | T/C [5]: 94 % of control | T/C [6]: 95 % of control

CCCCCCCCCCCCCCCCCCCC(=O)COS(C)(=O)=O
T/C [14]: 88 % of control | T/C [15]: 88 % of control | T/C [16]: 88 % of control

c1ccc2nc(OCCN3CC3)ccc2c1
T/C [10]: 108 % of control

COc1ccc(-c2csc(-c3ccccc3)n2)cc1N=Cc1ccc(N(CCCl)CCCl)c(OC)c1
T/C (dose: 0.96 mg/kg/injection, schedule: Q01DX009 (ip), vehicle: acetone): 106 % of control | T/C (dose: 1.4 mg/kg/injection, schedule: Q01DX009 (ip), vehicle: acetone): 103 % of control | T/C (dose: 5.0 mg/kg/injection, schedule: Q01DX015 (ip), vehicle: carboxymethylcellulose (CMC)): 120 % of control | T/C (dose: 8.0 mg/kg/injection, schedule: Q01DX015 (ip), vehicle: carboxymethylcellulose (CMC)): 113 % of control | T/C (dose: 10.0 mg/kg/injection, schedule: Q01DX009 (ip), vehicle: acetone): 154 % of control | T/C (dose: 20.0 mg/kg/injection, schedule: Q01DX009 (ip), vehicle: acetone): 166 % of control | T/C (dose: 20.0 mg/kg/injection, schedule: Q01DX015 (ip), vehicle: carboxymethylcellulose (CMC)): 153 % of control | T/C (dose: 40.0 mg/kg/injection, schedule: Q01DX009 (ip), vehicle: acetone): 102 % of control | T/C (dose: 66.0 mg/kg/injection, schedule: Q01DX015 (ip), vehicle: carboxymethylcellulose (CMC)): 101 % of control | T/C (dose: 100.0 mg/kg/injection, schedule: Q01DX015 (ip), vehicle: carboxymethylcellulose (CMC)): 104 % of control

Cc1cc([N+](=O)[O-])sc1[N+](=O)[O-]
T/C (dose: 25.0 mg/kg/injection, schedule: Q01DX009 (ip), vehicle: saline): 108 % of control | T/C (dose: 50.0 mg/kg/injection, schedule: Q01DX009 (ip), vehicle: saline): 97 % of control | T/C (dose: 100.0 mg/kg/injection, schedule: Q01DX009 (ip), vehicle: saline): 110 % of control | T/C [17]: 101 % of control

O=C1Cc2cccc3c2C(C1)CN3C(=O)c1ccccc1 (stereo unspecified)
T/C [1]: 90 % of control | T/C [2]: 100 % of control | T/C [3]: 88 % of control | T/C [4]: 94 % of control | T/C [5]: 97 % of control | T/C [6]: 95 % of control

CCOC(=O)c1cc2c(-c3ccccc3)c(-c3ccccc3)c(-c3ccccc3)c(-c3ccccc3)n2n1
T/C [11]: 93 % of control | T/C [13]: 93 % of control

Cc1c(Cl)cccc1NC(=O)CCl
T/C [1]: 97 % of control | T/C [3]: 103 % of control

COc1ccc(OC)c(NC(=O)c2c(Br)c(Br)c(Br)c(Br)c2C(=O)O)c1
T/C [18]: 109 % of control | T/C [19]: 97 % of control

CCN(CC)C(=O)O/N=C/c1ccccc1
T/C [11]: 94 % of control | T/C [12]: 91 % of control | T/C [13]: 96 % of control

CCOC(=O)C(=O)N(CC)CC
T/C [14]: 98 % of control | T/C [15]: 98 % of control | T/C [16]: 88 % of control

O=C(NCCCCCCNC(=O)Oc1ccccc1F)Oc1ccccc1F
T/C [18]: 102 % of control | T/C [19]: 97 % of control | T/C (dose: 400.0 mg/kg/injection, schedule: Q01DX009 (ip), vehicle: Klucel (hydroxypropylcellulose) (HPC)): 91 % of control

Oc1ccc(Cl)cc1Sc1cc(Cl)ccc1O
T/C (dose: 25.0 mg/kg/injection, schedule: Q04DX003 (ip), vehicle: other): 103 % of control | T/C (dose: 50.0 mg/kg/injection, schedule: Q01DX009 (ip), vehicle: other): 95 % of control | T/C (dose: 50.0 mg/kg/injection, schedule: Q04DX003 (ip), vehicle: other): 97 % of control | T/C [20]: 111 % of control | T/C [7]: 92 % of control | T/C [17]: 86 % of control | T/C [21]: 95 % of control

C[N+](C)(C)c1ccc([N+](=O)[O-])cn1
T/C [17]: 101 % of control

O=C(SCCN1CCCC1)N1c2ccccc2Sc2ccc(Cl)cc21
T/C (dose: 75.0 mg/kg/injection, schedule: Q01DX001 (ip), vehicle: carboxymethylcellulose (CMC)): 94 % of control | T/C (dose: 150.0 mg/kg/injection, schedule: Q01DX001 (ip), vehicle: carboxymethylcellulose (CMC)): 94 % of control

N#Cc1ccc(-c2nc3ncnc(N)c3[nH]2)cc1
T/C [14]: 97 % of control | T/C [15]: 105 % of control | T/C [16]: 101 % of control

COc1ccc(NC(=S)Nc2ccccn2)cc1
T/C [20]: 106 % of control | T/C [17]: 101 % of control | T/C [21]: 97 % of control | T/C (dose: 200.0 mg/kg/injection, schedule: Q04DX003 (ip), vehicle: saline): 87 % of control | T/C (dose: 400.0 mg/kg/injection, schedule: Q01DX009 (ip), vehicle: other): 103 % of control | T/C (dose: 400.0 mg/kg/injection, schedule: Q04DX003 (ip), vehicle: saline): 98 % of control

COC(CNCc1ccccc1)OC
T/C (dose: 75.0 mg/kg/injection, schedule: Q01DX001 (ip), vehicle: steriod suspending solution): 101 % of control | T/C (dose: 150.0 mg/kg/injection, schedule: Q01DX001 (ip), vehicle: steriod suspending solution): 102 % of control

Source: PubChem BioAssay AID248 (DTP/NCI, 2004)
